Test results as given in the NIST ThermoML archive (doi:10.1021/je101213p).
Where “and” joins values, the source holds several entries; their conditions need not be identical. Equal entries are not always repeated.

Legend:
[1] = Molar enthalpy of transition or fusion; conditions: DSC
[2] = DTA
[3] = molar heat capacity at constant pressure; conditions: 101.33 kPa, Liquid, Large sample (1 g) DSC

CCCCCCCCn1cc[n+](C)c1.O=S(=O)([N-]S(=O)(=O)C(F)(F)F)C(F)(F)F
Conditions	Molar enthalpy of transition or fusion [kcal/mol]	Normal melting temperature [°C]	molar heat capacity at constant pressure [J/K/mol]
[1], Metastable crystal	6.56	–	–
[2], Metastable crystal	–	-23.34	–
[3], 281.99 K	–	–	693.71
[3], 291.95 K	–	–	695.62
[3], 302.86 K	–	–	690.39
[3], 302.88 K	–	–	692.29
[3], 312.83 K	–	–	705.13
[3], 312.86 K	–	–	705.6
[3], 322.79 K	–	–	714.16
[3], 322.84 K	–	–	719.87
[3], 332.76 K	–	–	719.87
[3], 332.81 K	–	–	732.7
[3], 342.72 K	–	–	725.57
[3], 342.78 K	–	–	748.39
[3], 352.68 K	–	–	730.33
[3], 352.74 K	–	–	757.9
[3], 362.65 K	–	–	736.98
[3], 362.71 K	–	–	767.89
[3], 372.62 K	–	–	742.21
[3], 372.66 K	–	–	779.78

CCCCCC[n+]1ccn(C)c1.O=S(=O)([N-]S(=O)(=O)C(F)(F)F)C(F)(F)F
Conditions	Molar enthalpy of transition or fusion [kcal/mol]	Normal melting temperature [°C]	molar heat capacity at constant pressure
[1], Crystal	6.62	–	–
[2], Crystal	–	-1.70	–
[3], 302.86 K	–	–	655.92 J/K/mol
[3], 312.83 K	–	–	632.65 J/K/mol and 660.84 J/K/mol
[3], 322.79 K	–	–	666.66 J/K/mol
[3], 322.81 K	–	–	640.7 J/K/mol
[3], 332.76 K	–	–	668 J/K/mol
[3], 332.78 K	–	–	648.76 J/K/mol
[3], 342.73 K	–	–	671.58 J/K/mol
[3], 342.76 K	–	–	657.26 J/K/mol
[3], 352.7 K	–	–	676.95 J/K/mol
[3], 352.72 K	–	–	666.66 J/K/mol
[3], 362.67 K	–	–	683.66 J/K/mol
[3], 362.68 K	–	–	679.18 J/K/mol
[3], 372.64 K	–	–	690.82 J/K/mol
